# Results taken from patent US7763584B2, “Hepatitis C virus inhibitors” (priority 2006, dated 2010).
# System: HCV replicon in HUH-7 cells
# Test: HCV replicon FRET assay (EC50 confirmed in replicon luciferase reporter assay)
# Type: cell-based
# Details: Hepatitis C virus, Huh-7, 96 h
# Description: An HCV replicon whole cell system was established as described by Lohmann V, Korner F, Koch J, Herian U, Theilmann L, Bartenschlager R., Science 285(5424): 110-3 (1999). This system enabled us to evaluate the effects of our HCV Protease compounds on HCV RNA replication. Briefly, using the HCV strain 1b sequence described in the Lohmann paper (Assession number: AJ238799), an HCV cDNA was synthesized by Operon Technologies, Inc. (Alameda, Calif.), and the full-length replicon was then assembled in plasmid pGem9zf(+) (Promega, Madison, Wis.) using standard molecular biology techniques. […]
# The HCV replicon FRET assay was developed to monitor the inhibitory effects of compounds described in the disclosure on HCV viral replication. […] After 4 days, cells were first assessed for cytotoxicity using alamar Blue (Trek Diagnotstic Systems) for a CC50 reading. The toxicity of compound (CC50) was determined by adding 1/10th volume of alamar Blue to the media incubating the cells. After 4 h, the fluorescence signal from each well was read, with an excitation wavelength at 530 nm and an emission wavelength of 580 nm, using the Cytofluor Series 4000 (Perspective Biosystems). […]
structure (smiles),measurement,value
"CO[C@@]1(c2ccc(-c3ccccc3)cc2)C[C@H]2C(=O)N[C@]3(C(=O)NS(=O)(=O)C4CC4)C[C@H]3/C=C\CCCCC[C@H](NC(=O)OC(C)(C)C)C(=O)N2C1 [Compound 1, tert-butyl (2R,6S,13aS,14aR,16aS,Z)-2-(biphenyl-4-yl)-14a-(cyclopropylsulfonylcarbamoyl)-2-methoxy-5,16-dioxo-1,2,3,5,6,7,10,11,13a,14,14a,15,16,16a-hexadecahydrocyclopropa[e]pyrrolo[1,2-a][1,4]diazacyclopentadecin-6-ylcarbamate]",EC50,5 nM
